Reference: patent US20250090507A1, “Methods of Treating Cancer With a B-RAF Inhibitor” (MapKure, LLC, priority 2022, published 2025)
Entries after “also recorded” stand apart in the source; their conditions may differ. Like-named read-outs stand apart in the source and are kept apart here.

Assay: Phase 1 study (NCT04249843): plasma pharmacokinetics of Compound A
Type: in vivo, human
Conditions: for Racc: accumulation ratio based on AUC8h; for Cmax / AUC(0-t) / Tmax: human, plasma, oral
Procedure: For a single-dose profile: AUC from zero to the last measurable concentration (AUClast), AUC from zero to infinity (AUC0-∞), maximum observed plasma concentration (Cmax), time to maximum observed plasma concentration (tmax), t1/2, apparent clearance, and apparent volume of distribution (Vz/F). In addition, AUClast,ss, AUCtau, Cmax,ss, and tmax, ss were calculated at steady state.
Pharmacokinetic assay: plasma samples were assayed for Compound A (or possible major metabolites) concentration with use of a validated chromatography method.
Pharmacokinetic data were analyzed using the PK Population. Compound A PK variables (i.e., AUClast, AUC0-∞, Cmax, Tmax, t1/2, apparent clearance and Vz/F) were calculated after single dosing in Phase 1a. In addition, AUClast, ss, AUCtau, Cmax,ss, and tmax,ss were calculated in Phase 1b. The PK parameters were calculated as appropriate using noncompartmental methods and summary statistics were provided. Compound A (or possible major metabolites) plasma concentration data and PK parameters were tabulated and summarized for Day 1 of Cycle 1, Day 1 of Cycle 2 and at steady state (Phase 1b). Descriptive statistics included means, medians, minimums, maximums, standard deviation, coefficient of variation (CV), geometric mean, and geometric CV as appropriate. Mean plasma concentrations were also plotted against time for each dose level. Additional PK analyses may be conducted as appropriate.
Tumor response: • 1 patient evaluable, 201-011: SD week 8. • Preliminary PK parameters and data are listed in Table 6. • Parameters listed as Mean (% CV) • Tmax reported as median (min, max) • Accumulation ratio Racc based on AUC8h • Patient 101-007 was excluded from C2D1 of cohort 2 (10 mg) due to dose reduction. • Patient 101-011 was excluded from summary statistics of CID1 of cohort 6 (60 mg) due to […] samples. • Patient 201-011 C2D1 parameters excluded from summary statistics of C2D1 of cohort 6 due to extended dose interruption.

[1] = 40 mg, 40 mg QD, C2D1, patient 202-012

O=C1CCc2c(Oc3ccc4c(c3)[C@H]3[C@H](NC(=O)Nc5cc(F)c(F)cc5F)[C@H]3O4)ccnc2N1 [Compound A, 1-((1S,1aS,6bS)-5-((7-oxo-5,6,7,8-tetrahydro-1,8-naphthyridin-4-yl)oxy)-1a,6b-dihydro-1H-cyclopropa[b]benzofuran-1-yl)-3-(2,4,5-trifluorophenyl)urea]
Racc (5 mg QD, Mean (%CV)): 17 (117%)
Racc (10 mg QD, Mean (%CV)): 6 (49%)
Racc (15 mg QD, Mean (%CV)): 7 (60%)
Racc (25 mg QD, Mean (%CV)): 4 (23%)
Racc (40 mg QD, Mean (%CV)): 4 (23.5%)
Racc (40 mg QD, patient 101-010): 4.05
Racc (40 mg QD, patient 102-012): 4.06
Racc (40 mg QD, patient 201-010): 5.43
Racc (40 mg QD, patient 202-012): 3.06
Racc (60 mg QD, patient 101-011): 6.7
Racc (60 mg QD, patient 201-011): 5.7
Dose proportionality of exposure (5-60 mg QD, preliminary PK): generally increased dose-proportionally; also recorded: generally dose-proportional
Exposure across cohorts versus dose (cohorts up to 40 mg QD): generally proportional to the increase in the dose
Cmax (5 mg, 5 mg QD, C2D1, Mean (%CV)): 451 ng/mL
AUC(0-t) (5 mg, 5 mg QD, C2D1, Mean (%CV), read-out: AUC8 h): 2660 ng·h/mL
Cmax (5 mg, C1D1, Mean (%CV)): 105 ng/mL
AUC(0-t) (5 mg, C1D1, Mean (%CV), read-out: AUC8 h): 414 ng·h/mL
AUC(0-t) (5 mg, C1D1, Mean (%CV), read-out: AUC24 h): 1380 ng·h/mL
Cmax (10 mg, 10 mg QD, C2D1, Mean (%CV), patient 101-007 excluded): 973 ng/mL
AUC(0-t) (10 mg, 10 mg QD, C2D1, Mean (%CV), patient 101-007 excluded, read-out: AUC8 h): 5720 ng·h/mL
Cmax (10 mg, C1D1, Mean (%CV)): 197 ng/mL
AUC(0-t) (10 mg, C1D1, Mean (%CV), read-out: AUC8 h): 1060 ng·h/mL
AUC(0-t) (10 mg, C1D1, Mean (%CV), read-out: AUC24 h): 3140 ng·h/mL
Cmax (15 mg, 15 mg QD, C2D1, Mean (%CV)): 1660 ng/mL
AUC(0-t) (15 mg, 15 mg QD, C2D1, Mean (%CV), read-out: AUC8 h): 9930 ng·h/mL
Cmax (15 mg, C1D1, Mean (%CV)): 274 ng/mL
AUC(0-t) (15 mg, C1D1, Mean (%CV), read-out: AUC8 h): 1530 ng·h/mL
AUC(0-t) (15 mg, C1D1, Mean (%CV), read-out: AUC24 h): 4780 ng·h/mL
Cmax (25 mg, 25 mg QD, C2D1, Mean (%CV)): 2110 ng/mL
AUC(0-t) (25 mg, 25 mg QD, C2D1, Mean (%CV), read-out: AUC8 h): 12300 ng·h/mL
Cmax (25 mg, C1D1, Mean (%CV)): 593 ng/mL
AUC(0-t) (25 mg, C1D1, Mean (%CV), read-out: AUC8 h): 3090 ng·h/mL
AUC(0-t) (25 mg, C1D1, Mean (%CV), read-out: AUC24 h): 9170 ng·h/mL
Cmax (40 mg, 40 mg QD, C2D1, Mean (%CV)): 2970 ng/mL
AUC(0-t) (40 mg, 40 mg QD, C2D1, Mean (%CV), read-out: AUC8 h): 15700 ng·h/mL
Cmax (40 mg, 40 mg QD, C2D1, patient 101-010): 3600 ng/mL
AUC(0-t) (40 mg, 40 mg QD, C2D1, patient 101-010, read-out: AUC8 h): 15600 ng·h/mL
Cmax (40 mg, 40 mg QD, C2D1, patient 102-012): 3550 ng/mL
AUC(0-t) (40 mg, 40 mg QD, C2D1, patient 102-012, read-out: AUC8 h): 18300 ng·h/mL
Cmax (40 mg, 40 mg QD, C2D1, patient 201-010): 2410 ng/mL
AUC(0-t) (40 mg, 40 mg QD, C2D1, patient 201-010, read-out: AUC8 h): 13400 ng·h/mL
Cmax [1]: 2300 ng/mL
Tmax [1]: 3 h
AUC(0-t) (40 mg, 40 mg QD, C2D1, patient 202-012, read-out: AUC8 h): 15400 ng·h/mL
Cmax (40 mg, C1D1, Mean (%CV)): 698 ng/mL
AUC(0-t) (40 mg, C1D1, Mean (%CV), read-out: AUC8 h): 3960 ng·h/mL
AUC(0-t) (40 mg, C1D1, Mean (%CV), read-out: AUC24 h): 12100 ng·h/mL
Cmax (40 mg, C1D1, patient 101-010): 692 ng/mL
AUC(0-t) (40 mg, C1D1, patient 101-010, read-out: AUC8 h): 3850 ng·h/mL
AUC(0-t) (40 mg, C1D1, patient 101-010, read-out: AUC24 h): 12000 ng·h/mL
Cmax (40 mg, C1D1, patient 102-012): 789 ng/mL
AUC(0-t) (40 mg, C1D1, patient 102-012, read-out: AUC8 h): 4510 ng·h/mL
AUC(0-t) (40 mg, C1D1, patient 102-012, read-out: AUC24 h): 12300 ng·h/mL
Cmax (40 mg, C1D1, patient 201-010): 415 ng/mL
AUC(0-t) (40 mg, C1D1, patient 201-010, read-out: AUC8 h): 2470 ng·h/mL
AUC(0-t) (40 mg, C1D1, patient 201-010, read-out: AUC24 h): 8460 ng·h/mL
Cmax (40 mg, C1D1, patient 202-012): 896 ng/mL
AUC(0-t) (40 mg, C1D1, patient 202-012, read-out: AUC8 h): 5040 ng·h/mL
Cmax (60 mg, 60 mg QD, C2D1, Mean row, patient 201-011 excluded): 5330 ng/mL
AUC(0-t) (60 mg, 60 mg QD, C2D1, Mean row, patient 201-011 excluded, read-out: AUC8 h): 37500 ng·h/mL
Cmax (60 mg, 60 mg QD, C2D1, patient 201-011 (excluded from C2D1 summary, extended dose interruption)): 5230 ng/mL
AUC(0-t) (60 mg, 60 mg QD, C2D1, patient 201-011 (excluded from C2D1 summary, extended dose interruption), read-out: AUC8 h): 31300 ng·h/mL
Cmax (60 mg, C1D1, Mean (%CV), patient 101-011 excluded): 881 ng/mL
AUC(0-t) (60 mg, C1D1, Mean (%CV), patient 101-011 excluded, read-out: AUC8 h): 4930 ng·h/mL
AUC(0-t) (60 mg, C1D1, Mean (%CV), patient 101-011 excluded, read-out: AUC24 h): 15400 ng·h/mL
Cmax (60 mg, C1D1, patient 101-011 (excluded from C1D1 summary statistics, AQL samples)): 878 ng/mL
AUC(0-t) (60 mg, C1D1, patient 101-011 (excluded from C1D1 summary statistics, AQL samples), read-out: AUC8 h): 5630 ng·h/mL
AUC(0-t) (60 mg, C1D1, patient 101-011 (excluded from C1D1 summary statistics, AQL samples), read-out: AUC24 h): 18900 ng·h/mL
Cmax (60 mg, C1D1, patient 201-011): 957 ng/mL
AUC(0-t) (60 mg, C1D1, patient 201-011, read-out: AUC8 h): 5510 ng·h/mL
AUC(0-t) (60 mg, C1D1, patient 201-011, read-out: AUC24 h): 17600 ng·h/mL
Cmax (60 mg, C1D1, patient 202-014): 804 ng/mL
AUC(0-t) (60 mg, C1D1, patient 202-014, read-out: AUC8 h): 4340 ng·h/mL
AUC(0-t) (60 mg, C1D1, patient 202-014, read-out: AUC24 h): 13100 ng·h/mL
Tmax (5 mg QD, C2D1, median (min, max)): 1 h
Tmax (40 mg QD, C2D1, median (min, max)): 1.5 h
Tmax (60 mg QD, C2D1, patient 201-011 (excluded from C2D1 summary, extended dose interruption)): 2 h
Tmax (5-60 mg QD, preliminary PK, overall): ~2 h
average accumulation in exposure at steady-state (preliminary PK): 7.4 fold
terminal half-life (preliminary PK): long
